Data published in patent US20070196514A1, “Prostate cancer treatment with glycogen synthase kinase-3beta inhibitors” (priority 2006, published 2007).

Test system: LNCaP cells
Assay: Western blot of cell cycle-related proteins
Format: cell-based, human
Description: Western blot was carried out as described previously (Liao 2004, Liao 2003, and Liao 2005). Briefly, cells were pellets and lysed in radio-immunoprecipitation assay (“RIPA”) buffer containing protease inhibitors (Half™ Protease Inhibitor Cocktail Kit, PIERCE, Rockford, Ill.). Proteins were separated on SDS-PAGE gels and transferred to Immuno-Blot™ PVDF membrane (BIO-RAD, Hercules, Calif.). Membranes were blocked in a tris-buffered solution plus Tween 20 (“TBST”) solution with 5% nonfat dry milk and incubated with primary antibodies overnight at 4° C. Immunoreactive signals were detected by horseradish peroxidase-conjugated secondary antibodies (Santa Cruz Biotech., Santa Cruz, Calif.) followed by SuperSingnal® WestFeml® Maximum Sensitivity Substrate (PIERCE).
To verify those alterations at a protein level, two series experiments were conducted using Western blot technique. The first involved a time-course experiment. After serum starvation, LNCaP cells were left untreated or treated as before with LiCl for up to 24 hours. Cells were harvested at 18-24 hours.
Next, a dose-response experiment was performed. Following serum starvation for 24 hours, LNCaP cells were treated with BIO at different doses for another 24 hours. Control cells received the vehicle as treatment.

[Cl-].[Li+] [LiCl, Lithium chloride]
protein levels of cyclin B, PCNA, pRb, cdc2, cdc42 and GSK-3β (Western blot) (LiCl time-course): no significant change | serum-induced increase of cyclins A and E, cdc6 and cdc25C protein (Western blot) (LiCl time-course up to 24 hours): dramatically suppressed | protein levels of cyclin D1 (Western blot) (LiCl time-course, vs control): slightly higher | p21CIP1 protein expression (Western blot) (LiCl time-course, vs untreated control): increased significantly
